Source: patent US8183285B2, “Therapeutic agent for irritable bowel syndrome and methods thereof” (Takeda Pharmaceutical Company Limited, priority 2006, dated 2012)

Assays:
[1] = test system: melatonin receptor MT1/MT2; conditions: disclosed in U.S. Pat. No. 6,034,239; cited from earlier work
viscerosensory response = assay: Viscerosensory response test: abdominal oblique muscle contractions under colonic distension stimulus after 1% acetic acid instillation; format: in vivo; conditions: male SD rats, oral 0.3, 3 and 30 mg/kg, 30 minutes before second colonic distension stimulus; FIG. 1
Experimental: For the experiment, 7 to 8 week-old male SD rats (CREA Japan, Inc.) were used. Under ether anesthesia, the rats were sutured with a force transducer (F12-IS-SL, Star Medical Inc.) on the abdominal oblique muscle, and used for the experiment after waiting at least one day or more postoperatively for recovery of the animals. After fasting for 18 hours, 1% acetic acid was instilled into the colon to produce a hypersensitive condition. One hour after the instillation of acetic acid, a balloon was inserted into the colon, fixed, and colonic distension stimulus was loaded for 10 minutes by inflating the balloon. The colonic distension stimulus was loaded two times before and after administration of compound A, and the observed contraction number of the abdominal oblique muscle was counted. The result was expressed as inhibition percent. Determination of the abdominal muscle contraction was conducted with the naked eye and waveform of force transducer. Compound A was suspended in a 0.5% methylcellulose, and administered orally with a volume of 4 mL/kg 30 minutes before the second colonic distension stimulus (0.3, 3 and 30 mg/kg).

normal defecation = assay: Normal defecation test; format: in vivo; conditions: male Wistar rats, oral 30 mg/kg; FIG. 3
Experimental: Further, a study on normal defecation was also conducted. Until the day before the experiment, two rats were kept in a cage and accustomed to the measuring condition. On the day of experiment, compound A or vehicle (control group, 0.5% methylcellulose) was administered orally with a dose of 4 ml/kg, and after 15 minutes, the measurement of defecation was commenced. The number of feces was counted two hours after the initiation of measurement, and the result was expressed by the number of feces per two rats.

[2] = test system: restraint stress-induced defecation; assay: Restraint stress-induced defecation test; format: in vivo; conditions: male Wistar rats
Experimental: For the experiment, 10 week-old male Wistar rats (SLC) were used. Compound A (0.3, 3, 10 and 30 mg/kg) or a vehicle (control group, 0.5% methylcellulose) was administered orally with a dose of 4 ml/kg, and after 15 minutes, a restraint stress was loaded. Fecal pellets were retrieved 2 hours after the beginning of the restraint stress loading, and the number of feces was counted. In addition, as for normal group, rats were left in their individual cages without any after administration of vehicle, and the number of feces for 2 hours was counted. Experiment was carried out according to Test Example 2, wherein melatonin (10 and 30 mg/kg) instead of compound A was administered orally.

[3] = test system: abdominal symptoms of irritable bowel syndrome; conditions: female patients suffering from irritable bowel syndrome; cited from earlier work
[4] = test system: partial restraint stress-induced defecation; conditions: experimental model for irritable bowel syndrome; cited from earlier work

Row | Compound | melatonin receptor MT1/MT2 agonistic action [1] | inhibition of viscerosensory response (contraction number of abdominal oblique muscle, inhibition percent) (viscerosensory response) | inhibition of normal defecation (number of feces per two rats, 2 hours) (normal defecation) | inhibition of restraint stress-induced defecation (number of feces for 2 hours) ([2]; oral 30 mg/kg, 15 minutes before restraint stress, FIG. 2) | improvement of abdominal symptoms (abdominal pain, abdominal bloating, sense of urgency for defecation) [3] | inhibition of restraint stress-induced defecation (number of feces for 2 hours) ([2]; oral 10 and 30 mg/kg, FIG. 4) | inhibitory action on partial restraint stress-induced defecation [4]
1 | CCC(=O)NCC[C@@H]1CCc2ccc3c(c21)CCO3 [compound A, (S)—N-[2-(1,6,7,8-tetrahydro-2H-indeno[5,4-b]furan-8-yl)ethyl]propionamide] | has a melatonin receptor MT1/MT2 agonistic action | dose-dependent significant inhibition action | not inhibited | inhibited significantly |  |  | 
2 | COc1ccc2[nH]cc(CCNC(C)=O)c2c1 [melatonin] |  |  |  |  | improves significantly | did not inhibit | shows an inhibitory action
